How the values were obtained:
[1] = tested on: rats with occlusion of left coronary artery followed by reperfusion (I/R); test: Echocardiographic evaluation of left atrium and left ventricle in rats after ischemia/reperfusion (I/R); format: in vivo, Male OFA Sprague-dawley rats
Text: • Figure 1 is a combination of two graphs showing left atrium (LA) area after one month of treatment with DTI Dabigatran (A) or S35792 (B). Vehicle (V) is 60% H2O/40% PEG 300 for dabigatran and saline for S35972. Treatment of rats started just after thoracotomy without (Sham) or with occlusion of left coronary artery followed by reperfusion (I/R). […] Vehicle (V) is 60% H2O/40% PEG 300 for dabigatran and saline for S35972. Treatment of rats started just after thoracotomy without (Sham) or with occlusion of left coronary artery followed by reperfusion (I/R). Results are presented as mean +/- S.E.M. * P<0.05; ** P<0.001, *** P<0.001 vs Sham; #P<0.05 vs untreated I/R. • Figure 3 is a combination of two graphs showing thrombin time (TT), which reflects anticoagulant activity, and plasma concentrations of Dabigatran (A) and S35792 (B) in rats after throracotomy with occlusion of left coronary artery followed by reperfusion (I/R). Vehicle (V) is 60% H2O/40% PEG 300 for dabigatran and saline for S35972. Tests were carried out on blood collected by cardiac puncture at sacrifice (i.e. for Dabigatran, 90 minutes after last oral administration). DTI plasma levels are quantified using LC-MS/MS. TT are expressed as mean +/- S.E.M with reference to the mean value of sham animals that underwent thoracotomy only. *** P<0.001 vs untreated I/R. • Figure 4 is a combination of three graphs showing left atrium (LA) area (A) and diameter (B) and left ventricle end-diastolic (LVED) diameter (C) after two months of treatment with S35972. Treatment of rats started just after thoracotomy without (Sham) or with occlusion of left coronary artery followed by reperfusion (I/R). LA area was measured by bidimensional echocardiography. LA and LVED diameters were measured in time-motion mode. Results are presented as mean +/- S.E.M. *P<0.05, **P<0.01 and *** P<0.001 vs Sham; ^#P<0.05 ^###P<0.001 vs untreated I/R. • Figure 5 is a graph showing the impact of S35972 administration during two months on the duration of an episode of AF in rats undergone thoracotomy without (Sham) or with occlusion of left coronary artery followed by reperfusion (I/R). AF duration is measured as the time between the end of the electric stimulation and the return to sinusoidal rhythm. […] Rats undergone thoracotomy without (Sham) or with occlusion of left coronary artery followed by reperfusion (I/R). Expression of mRNA was measured with real-time qPCR. […] Treatment of rats started one month post thoracotomy without (Sham) or with occlusion of left coronary artery followed by reperfusion (I/R). LA area was measured by bidimensional echocardiography. LVED and LA diameters were measured in time-motion mode. […] Rats undergone thoracotomy without (Sham) or with occlusion of left coronary artery followed by reperfusion (I/R). AF duration is measured as the time between the end of the electric stimulation and return to sinusoidal rhythm. Results are presented as mean +/- S.E.M.
Animals were anesthetized with 30 mg/kg sodium pentobarbital, and then intubated and ventilated at 60 respirations/min while body temperature was maintained at 37°C. Rats underwent thoracotomy and their left coronary artery was either left intact (Sham) or occluded with a 4.0 silk suture at 1 mm from the artery origin. Ischemia was maintained for 30 min and the clamp was removed to initiate a definitive reperfusion phase. […]

[2] = tested on: paroxysmal AF; test: Duration of an AF episode induced by rapid stimulation of the left atrium with an esophageal electrode in I/R rats; format: in vivo, Male OFA Sprague-dawley rats; conditions: 6 mg/kg/day
Text: • Figure 1 is a combination of two graphs showing left atrium (LA) area after one month of treatment with DTI Dabigatran (A) or S35792 (B). Vehicle (V) is 60% H2O/40% PEG 300 for dabigatran and saline for S35972. Treatment of rats started just after thoracotomy without (Sham) or with occlusion of left coronary artery followed by reperfusion (I/R). Results are presented as mean +/- S.E.M, *P<0.05, **P<0.01 and *** P<0.001 vs Sham; ^##P<0.01 and ^###P<0.001 vs untreated I/R. • Figure 2 is a combination of graphs showing left ventricular end-diastolic (LVED) diameter and fractional shortening (FS) after one month of treatment with Dabigatran (A) or S35792 (B). […] DTI plasma levels are quantified using LC-MS/MS. TT are expressed as mean +/- S.E.M with reference to the mean value of sham animals that underwent thoracotomy only. *** P<0.001 vs untreated I/R. • Figure 4 is a combination of three graphs showing left atrium (LA) area (A) and diameter (B) and left ventricle end-diastolic (LVED) diameter (C) after two months of treatment with S35972. […] LA area was measured by bidimensional echocardiography. LA and LVED diameters were measured in time-motion mode. […] AF duration is measured as the time between the end of the electric stimulation and the return to sinusoidal rhythm. […] Expression of mRNA was measured with real-time qPCR. […] Expression of mRNA was measured with real-time qPCR. […]

[3] = Plasma concentration by LC-MS/MS in I/R rats; parameters: species or system Male OFA Sprague-dawley rats; conditions: rat, in vivo, sc
Text: • Figure 1 is a combination of two graphs showing left atrium (LA) area after one month of treatment with DTI Dabigatran (A) or S35792 (B). Vehicle (V) is 60% H2O/40% PEG 300 for dabigatran and saline for S35972. Treatment of rats started just after thoracotomy without (Sham) or with occlusion of left coronary artery followed by reperfusion (I/R). Results are presented as mean +/- S.E.M, *P<0.05, **P<0.01 and *** P<0.001 vs Sham; ^##P<0.01 and ^###P<0.001 vs untreated I/R. • Figure 2 is a combination of graphs showing left ventricular end-diastolic (LVED) diameter and fractional shortening (FS) after one month of treatment with Dabigatran (A) or S35792 (B). Vehicle (V) is 60% H2O/40% PEG 300 for dabigatran and saline for S35972. Treatment of rats started just after thoracotomy without (Sham) or with occlusion of left coronary artery followed by reperfusion (I/R). Results are presented as mean +/- S.E.M. * P<0.05; ** P<0.001, *** P<0.001 vs Sham; #P<0.05 vs untreated I/R. • Figure 3 is a combination of two graphs showing thrombin time (TT), which reflects anticoagulant activity, and plasma concentrations of Dabigatran (A) and S35792 (B) in rats after throracotomy with occlusion of left coronary artery followed by reperfusion (I/R). Vehicle (V) is 60% H2O/40% PEG 300 for dabigatran and saline for S35972. […] DTI plasma levels are quantified using LC-MS/MS. TT are expressed as mean +/- S.E.M with reference to the mean value of sham animals that underwent thoracotomy only. *** P<0.001 vs untreated I/R. • Figure 4 is a combination of three graphs showing left atrium (LA) area (A) and diameter (B) and left ventricle end-diastolic (LVED) diameter (C) after two months of treatment with S35972. […] LA area was measured by bidimensional echocardiography. LA and LVED diameters were measured in time-motion mode. […] AF duration is measured as the time between the end of the electric stimulation and the return to sinusoidal rhythm. […] Expression of mRNA was measured with real-time qPCR. […] Expression of mRNA was measured with real-time qPCR. […]

[4] = 6 mg/kg/d during one month, treatment started one month after the I/R episode
[5] = 6 mg/kg/day for 8 weeks, started just after I/R
[6] = four weeks post-I/R, one month of treatment started just after I/R

With “4-oxo-3-(2-pyridin-2-ylethylamino)-4,6,7,8-tetrahydro-pyrrolo[1,2-a]pyrazine-6-carboxylic acid 2-ethylcarbamoyl methoxy-benzylamide [S35972]” the left atrium area ([1]; 3 mg/kg/day for 8 weeks, started just after I/R) was “decreases the left atrium area”, the left atrium diameter [1, 4] was “decreased to an intermediate value between Sham and I/R rats” and the “left ventricle end-diastolic diameter” value [1, 4] was “had no effect”. The left atrium area ([1]; 6 mg/kg/d during one month, treatment started one month after the I/R episode (established atrial dilatation)) was “significantly reduced”, the atrial diameter [1, 5] was “significantly reduces” and the left atrium area [1, 5] was “decreases the left atrium area”. The “ventricular diameter (LVED diameter)” value [1, 5] was “significantly reduces”, the “dilatation of left atrium (left atrium (LA) area)” value [1, 6] was “prevent the dilatation of left atrium” and the “ventricular diameter (LVED diameter)” value [1, 6] was “do not impact”. The “ventricular function (fractional shortening)” value [1, 6] was “do not impact”, the AF duration ([2]; administered 1 month post I/R in rats with dilated atria) was “tends to decrease AF duration” and the “duration of episode of paroxysmal AF” value ([2]; eight weeks post I/R) was “decreases the duration of this episode of paroxysmal AF to the control values”. It also gave a plasma concentration ([3]; 3 mg/kg/day) of 24.1 ± 5.7 ng/mL and a plasma concentration ([3]; 6 mg/kg/day) of 57.2 ± 24.4 ng/mL.

Source: EP3072514A1, “Novel oral anticoagulants (NOACs) for preventing development and aggravation of atrial fibrillation” (Université Pierre et Marie Curie - Paris 6 (UPMC), priority 2015, dated 2016)
